Legend:
HER-2 = target: T1, HER-2 (Homo sapiens, UniProt P04626); assay: Inhibition of HER-2 phosphorylation in Calu-3 tumor cell line; type: cell-based; details: compound concentration 1 μM; Calu-3 cells, 16 h incubation; pY 1248 in HER-2; relative to DMSO control; read-out: Percent inhibition of HER-2-phosphorylation
T1 construct: endogenous in cells; host or cells: Calu-3 (ATCC HTB-55) human non-small-cell lung cancer cells
Experimental: Inhibition of HER-2 Phosphorylation in Calu-3 Tumor Cell Line
2×10^5 Calu-3 (ATTC HTB-55) cells per well were plated in a 12-well plate. After 4 days cells were starved for 16 h in Dulbecco's Modified Eagle Medium (DMEM)/0.5% Fetal Calf Serum (FCS)/1% Glutamine. During this 16 h period cells were incubated with a solution of the test compound in dimethylsulfoxide (DMSO), so that the final concentration of the compound is 1 μM and the final volume of DMSO is 0.5%. Afterwards cells were lysed in lyses buffer containing 1% octyl phenol ethoxylate (Triton®X-100), 10% Glycerol, 1 mM Ethylene glycol-bis(2-aminoethylether)-N,N,N′,N′-tetraacetic acid (EGTA), 1.5 mM MgCl2, 150 mM NaCl, 50 mM 4-(2-hydroxyethyl)-1-piperazineethanesulfonic acid (HEPES) buffer pH 7.5, 1 mM Phenylmethylsulfonyl fluoride (PMSF), 10 μg/mL Aprotinin (a naturally occurring protein that is obtained and purified from cow's lungs) and […] Orthovanadate (Na3VO4). Cell lysates were analyzed on a Sodium Dodecyl Sulfate Polyacrylamide Gel Electrophoresis (SDS PAGE) and after transfer to a nitrocellulose membrane detected with an antibody specifically recognizing the pY 1248 in HER-2 (phosphorylated tyrosine residue 1248 of human epidermal receptor 2). After incubation with an anti rabbit antibody coupled to POD (Peroxidase available from Biorad, Munich, Germany) signals were detected by chemiluminescence (ECL, Amersham). Inhibition of HER-2 phosphorylation is calculated as percentage of the control, which is treated with DMSO only. This percentage was calculated according to the following formula: Inhibition in %=100−(Phosphorylated-HER2-Signal of Test Sample*100/Phosphorylated-HER2-Signal DMSO-control).

T1 sequence (P04626 23-1255): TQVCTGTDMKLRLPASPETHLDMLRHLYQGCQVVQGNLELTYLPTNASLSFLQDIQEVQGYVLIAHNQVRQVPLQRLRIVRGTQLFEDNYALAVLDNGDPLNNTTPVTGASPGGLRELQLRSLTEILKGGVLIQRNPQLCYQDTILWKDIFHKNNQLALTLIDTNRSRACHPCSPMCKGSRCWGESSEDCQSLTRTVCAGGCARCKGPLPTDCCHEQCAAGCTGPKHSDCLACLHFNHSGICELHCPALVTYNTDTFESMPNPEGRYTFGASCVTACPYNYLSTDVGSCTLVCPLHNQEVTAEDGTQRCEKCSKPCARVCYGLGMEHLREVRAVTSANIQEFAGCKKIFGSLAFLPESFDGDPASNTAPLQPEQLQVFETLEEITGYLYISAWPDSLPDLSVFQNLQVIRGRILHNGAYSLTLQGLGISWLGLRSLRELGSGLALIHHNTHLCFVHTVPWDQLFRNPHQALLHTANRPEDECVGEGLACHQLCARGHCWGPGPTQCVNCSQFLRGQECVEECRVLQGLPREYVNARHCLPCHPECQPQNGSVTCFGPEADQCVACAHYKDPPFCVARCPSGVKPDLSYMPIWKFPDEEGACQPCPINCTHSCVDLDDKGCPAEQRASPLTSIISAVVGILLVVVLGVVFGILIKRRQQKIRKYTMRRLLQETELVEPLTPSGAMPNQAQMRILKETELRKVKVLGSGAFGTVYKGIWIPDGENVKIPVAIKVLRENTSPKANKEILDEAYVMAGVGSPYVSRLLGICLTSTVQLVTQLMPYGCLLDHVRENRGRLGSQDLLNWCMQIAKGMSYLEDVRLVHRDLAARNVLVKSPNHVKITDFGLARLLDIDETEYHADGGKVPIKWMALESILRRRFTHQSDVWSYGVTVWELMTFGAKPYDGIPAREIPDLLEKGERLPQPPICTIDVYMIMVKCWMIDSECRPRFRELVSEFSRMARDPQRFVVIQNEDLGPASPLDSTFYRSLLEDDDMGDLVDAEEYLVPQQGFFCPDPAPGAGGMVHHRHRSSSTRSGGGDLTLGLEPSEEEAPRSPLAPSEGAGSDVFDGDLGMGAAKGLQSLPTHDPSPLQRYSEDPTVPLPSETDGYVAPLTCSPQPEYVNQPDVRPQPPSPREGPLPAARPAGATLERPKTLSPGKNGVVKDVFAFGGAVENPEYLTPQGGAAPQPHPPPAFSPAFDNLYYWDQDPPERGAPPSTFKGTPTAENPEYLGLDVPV

Row | SMILES | inhibition at 1 µM (HER-2) [%] | melting point [°C]
1 | FC(F)(F)Oc1ccc(C=Cc2nc(COc3ccc(CSCCn4ccnn4)cc3)co2)cc1 [Example 1, 1-[2-(4-{2-[2-(4-Trifluoromethoxy-phenyl)-vinyl]-oxazol-4-ylmethoxy}-benzylsulfanyl)-ethyl]-1H-[1,2,3]triazole] | 65 to 80 | 
2 | [O-][S+](CCn1ccnn1)Cc1ccc(OCc2coc(/C=C/c3ccc(OC(F)(F)F)cc3)n2)cc1 (centres unmarked) [Example 3, 1-[2-(4-{2-[2-(E)-(4-Trifluoromethoxy-phenyl)-vinyl]-oxazol-4-ylmethoxy}-phenylmethanesulfinyl)-ethyl]-1H-[1,2,3]triazole] | > 80 | 
3 | [O-][S+](CCn1ccnn1)Cc1ccc(OCc2coc(C=Cc3ccc(SC(F)(F)F)cc3)n2)cc1 (centres unmarked) [Example 4, 1-[2-(4-{2-[2-(4-Trifluoromethylsulfanyl-phenyl)-vinyl]-oxazol-4-ylmethoxy}-phenylmethanesulfinyl)-ethyl]-1H-[1,2,3]triazole] |  | 182 to 184
4 | FC(F)(F)c1ccc(C=Cc2nc(COc3ccc(CSCCn4ccnn4)cc3)co2)cc1 [Example 6, 1-[2-(4-{2-[2-(4-Trifluoromethyl-phenyl)-vinyl]-oxazol-4-ylmethoxy}-benzylsulfanyl)-ethyl]-1H-[1,2,3]triazole] | 55 to 65 | 
5 | Fc1cc(C(F)(F)F)ccc1/C=C/c1nc(COc2ccc(CSCCn3ccnn3)cc2)co1 [Example 7, 1-[2-(4-{2-[2-(E)-(2-Fluoro-4-trifluoromethyl-phenyl)-vinyl]-oxazol-4-ylmethoxy}-benzylsulfanyl)-ethyl]-1H-[1,2,3]triazole] | > 80 | 
6 | Fc1cc(Cl)ccc1/C=C/c1nc(COc2ccc(CSCCn3ccnn3)cc2)co1 [Example 9, 1-[2-(4-{2-[2-(E)-(4-Chloro-2-fluoro-phenyl)-vinyl]-oxazol-4-ylmethoxy}-benzylsulfanyl)-ethyl]-1H-[1,2,3]triazole] | 65 to 80 | 
7 | O=S(=O)(CCn1ccnn1)Cc1ccc(OCc2coc(/C=C/c3ccc(C(F)(F)F)cc3F)n2)cc1 [Example 10, 1-[2-(4-{2-[2-(E)-(2-Fluoro-4-trifluoromethyl-phenyl)-vinyl]-oxazol-4-ylmethoxy}-phenylmethanesulfonyl)-ethyl]-1H-[1,2,3]triazole] | 55 to 65 | 
8 | [O-][S+](CCn1ccnn1)Cc1ccc(OCc2coc(/C=C/c3ccc(C(F)(F)F)cc3F)n2)cc1 (centres unmarked) [Example 11, 1-[2-(4-{2-[2-(E)-(2-Fluoro-4-trifluoromethyl-phenyl)-vinyl]-oxazol-4-ylmethoxy}-phenylmethanesulfinyl)-ethyl]-1H-[1,2,3]triazole] | > 80 | 

Source: US7005526B2, “Thioether derivatives” (Hoffmann-La Roche Inc., priority 2004, dated 2006)
